Assay [1] concerns the target T1, human thrombin (Homo sapiens, UniProt P00734). Put plainly: Fibrin clot assay (human plasma, turbidity). Format: biochemical. The settings on record: Table 1, 1 nM thrombin, at 30 minutes. As for the experimental part: The fibrin clot assay was performed essentially as described by Krtenansky et al, FEBS, 1987, 211:10. A serial dilution of the inhibitor was prepared in 50 mM tri HCl buffer (pH 7.8 at 23° C.) containing 0.1 M NaCl and 0.1% (w/v) polyethylene glycol 8000. Human plasma (60 μL, collected in 3.8% sodium citrate, blood/anticoagulate 9:1) was added to microtiter wells (microtiter plate, Falcon) containing 100 μL of various inhibitor dilutions. The solution was mixed after which 50 μL of human thrombin (1 nM final conc.) was added and mixed for 15 seconds. The turbidity of the clot was immediately monitored by microplate autoreader (Dynateck MR 5000) at 405 nm and recorded every 3 min. The maximal turbidity in the absence of inhibitors was reached within 60 min. IC50 values were calculated at 30 minutes as the inhibitor concentration that gave half the optical density of the control.

Assay [2] addresses T1, human thrombin. Put plainly: Inhibition of amidolytic activity of human thrombin (Ki, fluorogenic substrate Tos-Gly-Pro-Arg-AMC). Format: biochemical. Here is the method:
In an assay to determine the inhibitory dissociation constant, Ki, for a given compound, a chromogenic or fluorogenic substrate of thrombin would be added to a solution containing a test compound and thrombin; the resulting catalytic activity of the enzyme would be spectrophotometrically determined. This type of assay is well known to those skilled in the art.
Determination of K1 Values for Heterocyclics
The steady-state velocity was then measured for a few minutes. The compounds of this invention were also pre-incubated with thrombin for 20 minutes at room temperature before adding the substrate.

For assay [3], the system named is washed platelets from rats. Put plainly: Platelet secretion (14C-serotonin, 5-HT, release from washed rat platelets, thrombin stimulated). Particulars: Table 1, human thrombin 0.1 IU/mL, read-out: Antiplatelet activity, 5-HT Secretion (IC50). Format: cell-based. Here is the method:
Platelet Aggregation and Secretion Rat blood was collected into ACD (6/1 v/v) by cardiac puncture. Suspensions of washed platelets were prepared as described by […] et al, (Br. J. Haematol. 1970, 19:7 and Proc. Soc. Exp. Biol. Med. 1971, 136:1021). […] Platelet counts were adjusted to 5000,000/ μL. To permit measurement of the extent of release of the contents of the dense granules, the platelets were labelled in the first washing solution with ^14 C-serotonin (5-HT) (1 μCi/10 mL of washing fluid) and release of ^14 C-serotonin was determined as described in Holmsen et al, (Enzymology, 1989, 169:206). […] (5 μM final conc.) was added to present the reuptake of released serotonin. Platelet aggregation was recorded at 37° C. in an aggregometer (BioData PAP-4) at a stirring speed of 1,100 rpm by measuring the variations of light transmission. […] IC50 values represent the concentration that was necessary to inhibit platelet aggregation or secretion to 50% of the control.

Assay [4] addresses T1, human thrombin. In words: dTT assay (fibrin clotting assay, human thrombin and bovine fibrinogen). It counts as biochemical. The settings on record: concentration required to double the clotting time. The text has this:
The clotting time was plotted against the inhibitor concentrations and the IC50 was estimated as the inhibitor concentration required to double the clotting time relative to the control.

For assay [5], the system named is washed platelets from rats. Put plainly: Platelet aggregation (washed rat platelets, thrombin stimulated). Format: cell-based. The settings on record: Table 1, suspension of washed platelets from rats, human thrombin 0.1 IU/mL, read-out: Antiplatelet activity, Aggregation (IC50). Here is the method: Platelet Aggregation and Secretion Rat blood was collected into ACD (6/1 v/v) by cardiac puncture. Suspensions of washed platelets were prepared as described by […] et al, (Br. J. Haematol. 1970, 19:7 and Proc. Soc. Exp. Biol. Med. 1971, 136:1021). […] Platelet counts were adjusted to 5000,000/ μL. Platelet aggregation was recorded at 37° C. in an aggregometer (BioData PAP-4) at a stirring speed of 1,100 rpm by measuring the variations of light transmission. […] IC50 values represent the concentration that was necessary to inhibit platelet aggregation or secretion to 50% of the control.

A further assay has as its system carotid artery in rats. In words: FeCl3 induced carotid arterial injury model (arterial thrombosis) in rats, time to occlusion. Format: in vivo, rat (Sprague-Dawley). The settings on record: Table 2. Here is the method: Arterial Thrombosis Model
FeCl3 Induced Carotid Arterial Injury Model
Animals were laid on a 37° C. heating pad. The carotid artery was exposed through a midline cervical incision. Careful blunt dissection was used to isolate the vessel from the carotid sheath. […] A temperature probe (Physitemp*MT23/3) was placed between one of the pieces of tubing and the artery. Injury was induced by topical application on the carotid artery above the temperature probe of a small disc (3 mm dia.) of Whatman* No. 1 filter paper previously dipped in a 35% solution of FeCl3 […]. The vessel temperature was monitored for 60 minutes after application of FeCl3 as an indication of blood flow.
The time between the FeCl3 application and the time at which the vessel temperature decreased abruptly (>2.4° C.) was recorded as the time to occlusion of the vessel. Inhibitor compounds were given as an iv bolus (mg/kg) followed immediately by an iv infusion (μg/kg/min. via femoral vein). The dose of inhibitor needed to double the time to occlusion in comparison to control animals in which injury was induced in the absence of inhibitor was determined.

Where [6] appears, read: Table 1, read-out: Ki (inhibitory dissociation constant for human thrombin).
[7] abbreviates: ivb + inf 0.75-50 (iv bolus mg/kg, infusion μg/kg/min).

Where two headings read alike, the source gives them in different places.

Broadly, the Ki is the dissociation constant of the complex between target and ligand, obtained from inhibition or displacement.

Consider `N=C(N)NCCCC(NC(=O)[C@@H]1CSC2CC[C@@H](Cc3ccccc3)C(=O)N21)C1(CCCCC(N)=O)SCCS1` (stereo partly drawn) [Compound 0050, 6S-benzylhexahydro-5-oxo-5H-thiazolo[3,2-a]pyridine-3R-carboxamido(carboxamidopentylcyclodithioketalarginine)], for which, on human thrombin [1], the IC50 is > 450 µM. Further, the inhibitory constant (Ki) at human thrombin [2] (setting [6]) came to 62 µM.
Turning to `CC(SCC(=O)C(CCCNC(=N)N)NC(=O)[C@@H]1CSC2CC[C@@H](CC3CCCCC3)C(=O)N21)C(=O)O` (stereo partly drawn) [Compound 0070, 6S-cyclohexylmethylhexahydro-5-oxo-5H-thiazolo[3,2-a]pyridine-3R-carboxamido(1-carboxy-2-methyl-3-thiobutylketoarginine)], the IC50 was determined as 78 µM against human thrombin [1]; 2.1 µM in assay [3]; 25 µM at human thrombin [4] (Table 1, read-out: dTT IC50); 22 µM in assay [5]. Also, the inhibitory constant (Ki) on human thrombin [2] (setting [6]) stood at 4.4 µM.
`N=C(N)NCCCC(NC(=O)[C@@H]1CSC2CC[C@@H](Cc3ccccc3)C(=O)N21)C1(CCC(N)=O)SCCS1` (stereo partly drawn) [Compound 0035, 6S-benzylhexahydro-5-oxo-5H-thiazolo[3,2-a]pyridine-3R-carboxamido(carboxamidopropylcyclodithioketalarginine)]: the IC50 at human thrombin [1] is > 450 µM; in assay [3] it was > 100 µM; at human thrombin [4] (Table 1, read-out: dTT IC50) it was 319 µM; in assay [5], > 100 µM. Also, the Ki at human thrombin [2] (setting [6]) came to 34 µM.
As for `COC(=O)CCC1(C(CCCNC(=N)N)NC(=O)[C@@H]2CSC3CC[C@@H](CC4CCCCC4)C(=O)N32)SCCS1` (stereo partly drawn) [Compound 0025, 6S-cyclohexyl methyl hexahydro-5-oxo-5H-thiazolo[3,2-a]pyridine-3R-carboxamido(carbmethoxypropylcyclodithioketalarginine)], the IC50 is > 450 µM at human thrombin [1]; > 100 µM in assay [3]; > 625 µM on human thrombin [4] (Table 1, read-out: dTT IC50); > 100 µM in assay [5]. Besides, the inhibition constant Ki at human thrombin [2] (setting [6]) was found to be 53 µM.
For the compound `N=C(N)NCCC[C@H](NC(=O)[C@@H]1CSC2CC[C@@H](CC3CCCCC3)C(=O)N21)C(=O)N1CCCC(C(N)=O)C1` (stereo partly drawn) [Compound 0040, 6S-cyclohexylmethylhexahydro-5-oxo-5H-thiazolo[3,2-a]pyridine-3R-carboxamido((S)-Argnipecotamide)], the IC50 on human thrombin [1] is > 450 µM; in assay [3], > 100 µM; on human thrombin [4] (Table 1, read-out: dTT IC50), 207 µM; in assay [5] it was > 100 µM. The Ki on human thrombin [2] (setting [6]) came to 19 µM.
On to `CCCC(=O)C(CCCNC(=N)N)NC(=O)[C@@H]1CSC2CC[C@@H](Cc3ccccc3)C(=O)N21` (stereo partly drawn) [Compound 0005, 6S-benzylhexahydro-5-oxo-5H-thiazolo[3,2-a]pyridine-3R-carboxamido (propyl ketoarginine)], for which the IC50 is > 450 µM at human thrombin [1] and 47 µM at human thrombin [4] (Table 1, read-out: dTT IC50). Also, the inhibition constant Ki on human thrombin [2] (setting [6]) was 4 µM.
Take `CCCCC(=O)C(CCCNC(=N)N)NC(=O)[C@@H]1CSC2CC[C@@H](Cc3ccccc3)C(=O)N21` (stereo partly drawn) [Compound 0010, 6S-benzylhexahydro-5-oxo-5H-thiazolo[3,2-a]pyridine-3R-carboxamido (butyl ketoarginine)]: the IC50 was > 450 µM against human thrombin [1]; 19 µM in assay [3]; 89.5 µM on human thrombin [4] (Table 1, read-out: dTT IC50); 21 µM in assay [5]. Also, the Ki at human thrombin [2] (setting [6]) is 4.6 µM.
`N=C(N)NCCC[C@H](NC(=O)[C@@H]1CSC2CC[C@@H](CC3CCCCC3)C(=O)N21)C(=O)N1CCC(C(N)=O)CC1` (stereo partly drawn) [Compound 0045, 6S-cyclohexylmethylhexahydro-5-oxo-5H-thiazolo[3,2-a]pyridine-3R-carboxamido((S)Argisonipecotamide)]: the IC50 on human thrombin [1] was > 450 µM; on human thrombin [4] (Table 1, read-out: dTT IC50) it was 415 µM. Besides, the Ki on human thrombin [2] (setting [6]) was 74 µM.
Consider `N=C(N)NCCCC(NC(=O)[C@@H]1CSC2CC[C@@H](CC3CCCCC3)C(=O)N21)C(=O)C[n+]1ccc2ccccc2c1` (stereo partly drawn) [Compound 0080, 6S-cyclohexylmethylhexahydro-5-oxo-5H-thiazolo[3,2-a]pyridine-3R-carboxamido(iso-quinoliniummethylketoarginine)], for which the IC50 in assay [3] stood at 0.38 µM; on human thrombin [4] (Table 1, read-out: dTT IC50), 0.375 µM; in assay [5], 0.4 µM. At human thrombin [2] (setting [6]), the Ki turned out to be 0.048 µM.
On to `N=C(N)NCCCC(NC(=O)[C@@H]1CC[C@H]2CN(C(=O)c3ccccc3)CC(=O)N21)C(=O)c1nccs1` (stereo partly drawn) [Compound 0335, 2-Benzoyl-4-oxo-octahydro-pyrrolo[1,2-a]pyrazine-6-carboxylic acid[4-guanidino-1-(thiazole-2-carbonyl)-butyl]-amide], for which the “M.O.T (min)+/-sem” value was 41.5 ± 7.27 min with carotid artery in rats (ivb + inf 0.5-30 (iv bolus mg/kg, infusion μg/kg/min)) and 45.8 ± 14.2 min in the assay with carotid artery in rats (setting [7]). Moreover, at human thrombin [4] (Table 2, read-out: dTT), the IC50 was found to be 0.138 µM. Further, the Ki on human thrombin [2] (Table 2, read-out: Ki) was determined as 0.025 µM.
`COC(=O)CCC(=O)C(CCCNC(=N)N)NC(=O)[C@@H]1CSC2CC[C@@H](Cc3ccccc3)C(=O)N21` (stereo partly drawn) [Compound 0100, 6S-benzylhexahydro-5-oxo-5H-thiazolo[3,2-a]pyridine-3R-carboxamido(propylcarbmethoxyketoarginine)]: the IC50 on human thrombin [4] (Table 1, read-out: dTT IC50) came to 165 µM. Moreover, at human thrombin [2] (setting [6]), the Ki stood at 19 µM.
Taken in the same sequence, the figures for `N=C(N)NCCCC(NC(=O)[C@@H]1CSC2CC[C@@H](CC3CCCCC3)C(=O)N21)C(=O)CCC(=O)N[C@@H](Cc1ccccc1)C(=O)N[C@@H](CCCNC(=N)N)C(N)=O` (stereo partly drawn) [Compound 0090, 6S-cyclohexylmethylhexahydro-5-oxo-5H-thiazolo[3,2-a]pyridine-3R-carboxamido((propylketo)Arg--Phe--Arg--NH2)] were 0.33 µM and 0.031 µM.
`N=C(N)NCCCC(NC(=O)C1CSC2CCC(N3C(=O)c4ccccc4C3=O)C(=O)N21)C(=O)c1nccs1` (single isomer, unassigned) [Compound 0295a]: the “M.O.T (min)+/-sem” value in the assay with carotid artery in rats (setting [7]) worked out at 20 ± 1 min. Further, the inhibition constant (Ki) on human thrombin [2] (Table 2, read-out: Ki) stood at 1.5 µM.
The like results for `C[C@]12CC[C@@H](Cc3ccc4nc(C(F)(F)F)ccc4c3)C(=O)N1[C@H](C(=O)NC(CCCNC(=N)N)C(=O)c1nc3ccccc3s1)CS2` (stereo partly drawn) [Compound 0240, 8a-Methyl-5-oxo-6-(2-trifluoromethyl-quinolin-6-ylmethyl)-hexahydro-thiazolo[3,2-a]pyridine-3-carboxylic acid[1-(benzothiazole-2-carbonyl)-4-guanidino-butyl]-amide] were, in that order, 17 ± 2.6 min and 0.018 µM.
The like results for `N=C(N)NCCCC(NC(=O)[C@@H]1CSC[C@H]2CC[C@@H](Cc3ccccc3)C(=O)N21)C(=O)c1nccs1` (single isomer, unassigned) [Compound 0925a] were, in that order, 20.3 ± 3.5 min and 0.007 µM.

These data come from patent publication US6057314A, “Low molecular weight bicyclic thrombin inhibitors” (Biochem Pharma Inc., priority 1997, dated 2000).
